Source: US11214594B2, “Antimicrobial peptide having synergistic antibacterial effect with antibiotics on multidrug resistant bacteria, and use thereof” (priority 2016, dated 2022)
Converted amounts (≈) assume the structure as drawn. Where a SMILES comes first, the peptide text is derived from it. [ ]: non-standard residue; d: D form.

How the values were obtained:
MDRAB 12035 = experiment: microbe, parasite or virus in culture; type: cell-based, Acinetobacter baumannii
Protocol: (§1) For the antibacterial activity, a minimal inhibitory concentration (MIC) of a peptide in which fungus bodies were not split in an MH medium with sufficient nutrients was measured.
(§2) Specifically, the strains described in the following [Table 2] were purchased and diluted with an MH medium such that the number of bacteria was 2×10^6 colony-forming units (CFUs), 100 μl of each of the diluted strains was aliquoted into a 96-well microtiter plate, and then 100 μl of a peptide solution diluted with the MH medium (solution diluted stepwise at 2: 1) was added to each well.

A. baumannii = experiment: microbe, parasite or virus in culture; type: cell-based, Acinetobacter baumannii
Protocol: as §1, §2

S. typhimurium = experiment: microbe, parasite or virus in culture; type: cell-based, Salmonella typhimurium
Protocol: as §1, §2

MDRPA 2002 = type: cell-based, Pseudomonas aeruginosa
How it was run: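 MIC read-out = lowest peptide level with no bacterial proliferation. Strains diluted in MH medium to 2×10^6 CFU; peptide twofold serial dilutions in MH added 1:1 in microtiter wells.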

MDREC 1229 = experiment: microbe, parasite or virus in culture; type: cell-based, Escherichia coli
Protocol: as §1, §2

E. coli [1] = experiment: microbe, parasite or virus in culture; type: cell-based, Escherichia coli; settings: for Minimal inhibitory concentration MIC: 16 h
Protocol: as §1, §2

MRSA 3114 = type: cell-based, Staphylococcus aureus; settings: 3114
Protocol: as §1, §2

MRSA 3126 = type: cell-based, Staphylococcus aureus; settings: 3126
Protocol: as §1, §2

MDRST 8007 = experiment: Minimal inhibitory concentration (MIC), single agent; type: cell-based, Salmonella typhimurium; settings: agent alone
Protocol: as §1, §2

E. coli [2] = experiment: MIC of antibiotic during combined treatment with antimicrobial peptide; type: cell-based, Escherichia coli; settings: for Synergistic effect of antibacterial activity with existing antibiotics compared with PapMA-1: E. coli and MDREC1229; for Antibiotic MIC, Erythromycin / Antibiotic MIC, Linezolid / Antibiotic MIC, Vancomycin: E. coli
Protocol: Thereafter, the MIC value of each mixed solution was determined by diluting the antibiotic solution with the MH medium, adding 50 μl of the diluted solution to each well, and performing an experiment even under a reversed condition.

S. aureus = experiment: microbe, parasite or virus in culture; type: cell-based, Staphylococcus aureus
Protocol: as §1, §2

B. subtilis = experiment: microbe, parasite or virus in culture; type: cell-based, Bacillus subtilis
Protocol: as §1, §2

[3] = erythromycin combined with peptide at 1 μg/ml
[4] = erythromycin combined with peptide at 2 μg/ml
[5] = erythromycin combined with peptide at 4 μg/ml
[6] = erythromycin combined with peptide at 6 μg/ml
[7] = erythromycin combined with peptide at 8 μg/ml
[8] = erythromycin combined with peptide at 16 μg/ml
[9] = erythromycin combined with peptide at 32 μg/ml
[10] = erythromycin combined with peptide at 64 μg/ml
[11] = linezolid combined with peptide at 1 μg/ml
[12] = linezolid combined with peptide at 2 μg/ml
[13] = linezolid combined with peptide at 4 μg/ml
[14] = linezolid combined with peptide at 6 μg/ml
[15] = linezolid combined with peptide at 8 μg/ml
[16] = linezolid combined with peptide at 16 μg/ml
[17] = linezolid combined with peptide at 32 μg/ml
[18] = linezolid combined with peptide at 64 μg/ml
[19] = vancomycin combined with peptide at 1 μg/ml
[20] = vancomycin combined with peptide at 2 μg/ml
[21] = vancomycin combined with peptide at 4 μg/ml
[22] = vancomycin combined with peptide at 6 μg/ml
[23] = vancomycin combined with peptide at 8 μg/ml
[24] = vancomycin combined with peptide at 16 μg/ml
[25] = vancomycin combined with peptide at 32 μg/ml
[26] = vancomycin combined with peptide at 64 μg/ml

| Structure (SMILES) | Minimal inhibitory concentration MIC (MDRAB 12035) [µg/mL] | Peptide MIC, peptide alone (MDRAB 12035) [µg/mL] | Minimal inhibitory concentration MIC (A. baumannii) [µg/mL] | Peptide MIC, peptide alone (A. baumannii) [µg/mL] | Minimal inhibitory concentration MIC (S. typhimurium) [µg/mL] | Minimal inhibitory concentration MIC (MDRPA 2002) [µg/mL] | Minimal inhibitory concentration MIC (MDREC 1229) [µg/mL] | Minimal inhibitory concentration MIC (E. coli [1]) [µg/mL] | Minimal inhibitory concentration MIC (MRSA 3114) [µg/mL] | Minimal inhibitory concentration MIC (MRSA 3126) [µg/mL] | Minimal inhibitory concentration MIC (MDRST 8007) [µg/mL] | Synergistic effect of antibacterial activity with existing antibiotics compared with PapMA-1 (E. coli [2]) | Antibiotic MIC, Erythromycin (E. coli [2]; [3]) [µg/mL] | Antibiotic MIC, Erythromycin (E. coli [2]; [4]) [µg/mL] | Antibiotic MIC, Erythromycin (E. coli [2]; [5]) [µg/mL] | Antibiotic MIC, Erythromycin (E. coli [2]; [6]) [µg/mL] | Antibiotic MIC, Erythromycin (E. coli [2]; [7]) [µg/mL] | Antibiotic MIC, Erythromycin (E. coli [2]; [8]) [µg/mL] | Antibiotic MIC, Erythromycin (E. coli [2]; [9]) [µg/mL] | Antibiotic MIC, Erythromycin (E. coli [2]; [10]) [µg/mL] | also measured |
| --- | --- | --- | --- | --- | --- | --- | --- | --- | --- | --- | --- | --- | --- | --- | --- | --- | --- | --- | --- | --- | --- |
| CC[C@H](C)[C@H](NC(=O)[C@H](CCCCN)NC(=O)[C@H](Cc1c[nH]c2ccccc12)NC(=O)[C@@H](N)CCCNC(=N)N)C(=O)N[C@@H](Cc1ccccc1)C(=O)N[C@@H](CCCCN)C(=O)N[C@@H](CCCCN)C(=O)N[C@H](C(=O)N1CCC[C@H]1C(=O)N[C@@H](CCCCN)C(=O)N[C@@H](CC(C)C)C(=O)N[C@@H](CC(C)C)C(=O)N[C@@H](Cc1c[nH]cn1)C(=O)N[C@@H](CO)C(=O)N[C@@H](C)C(=O)N[C@@H](CCCCN)C(=O)N[C@@H](CCCCN)C(=O)N[C@@H](Cc1c[nH]c2ccccc12)C(N)=O)[C@@H](C)CC [PapMA-9, RWK IFK KIP KLL HSA KKW-NH2] (H-RWKIFKKIPKLLHSAKKW-NH2; N-terminus assumed) | 64 (≈ 27.7 µM) | 64 | 32 (≈ 13.9 µM) | 32 | 32 (≈ 13.9 µM) | 16 (≈ 6.94 µM) | 64 (≈ 27.7 µM) | 32 (≈ 13.9 µM) | >128 | >128 | 64 (≈ 27.7 µM) | higher level than the PapMA-1 peptide | 128 | 64 | 8 | 2 | 0.5 | 0.125 | 0 | 0 | Antibacterial activity relative to PapMA-1 (E. coli [1]; E. coli): at least twice as high; Antibiotic MIC, Linezolid (E. coli [2]; [11]): >128 µg/mL; Antibiotic MIC, Linezolid (E. coli [2]; [12]): >128 µg/mL; Antibiotic MIC, Linezolid (E. coli [2]; [13]): 16 µg/mL; Antibiotic MIC, Linezolid (E. coli [2]; [14]): 8 µg/mL; Antibiotic MIC, Linezolid (E. coli [2]; [15]): 4 µg/mL; Antibiotic MIC, Linezolid (E. coli [2]; [16]): 2 µg/mL; Antibiotic MIC, Linezolid (E. coli [2]; [17]): 0 µg/mL; Antibiotic MIC, Linezolid (E. coli [2]; [18]): 0 µg/mL; Antibiotic MIC, Vancomycin (E. coli [2]; [19]): >128 µg/mL; Antibiotic MIC, Vancomycin (E. coli [2]; [20]): >128 µg/mL; Antibiotic MIC, Vancomycin (E. coli [2]; [21]): 64 µg/mL; Antibiotic MIC, Vancomycin (E. coli [2]; [22]): 16 µg/mL; Antibiotic MIC, Vancomycin (E. coli [2]; [23]): 8 µg/mL; Antibiotic MIC, Vancomycin (E. coli [2]; [24]): 2 µg/mL; Antibiotic MIC, Vancomycin (E. coli [2]; [25]): 0 µg/mL; Antibiotic MIC, Vancomycin (E. coli [2]; [26]): 0 µg/mL; Minimal inhibitory concentration MIC (S. aureus): >128 µg/mL; Minimal inhibitory concentration MIC (B. subtilis): >128 µg/mL |
| CC[C@H](C)[C@H](NC(=O)[C@H](CCCCN)NC(=O)[C@H](Cc1c[nH]c2ccccc12)NC(=O)[C@@H](N)CCCNC(=N)N)C(=O)N[C@@H](Cc1ccccc1)C(=O)N[C@@H](CCCCN)C(=O)N[C@@H](CCCCN)C(=O)N[C@H](C(=O)N1CCC[C@H]1C(=O)N[C@@H](CCCCN)C(=O)N[C@@H](Cc1ccccc1)C(=O)N[C@@H](CC(C)C)C(=O)N[C@@H](Cc1c[nH]cn1)C(=O)N[C@@H](CCC(=O)O)C(=O)N[C@@H](C)C(=O)N[C@@H](CCCCN)C(=O)N[C@@H](CCCCN)C(=O)N[C@@H](Cc1ccccc1)C(N)=O)[C@@H](C)CC [PapMA-11, RWK IFK KIP KFL HEA KKF-NH2] (H-RWKIFKKIPKFLHEAKKF-NH2; N-terminus assumed) | 64 (≈ 27.3 µM) | 64 | 64 (≈ 27.3 µM) | 64 | 64 (≈ 27.3 µM) | 128 (≈ 54.6 µM) | 64 (≈ 27.3 µM) | 64 (≈ 27.3 µM) | >128 | >128 | 64 (≈ 27.3 µM) | level similar to that of the PapMA-1 peptide | 64 | 64 | 16 | 4 | 1 | 0.25 | 0.125 | 0 | Peptide MIC, peptide alone (MDREC 1229): 64 µg/mL; Antibiotic MIC, Linezolid (E. coli [2]; [11]): >128 µg/mL; Antibiotic MIC, Linezolid (E. coli [2]; [12]): 128 µg/mL; Antibiotic MIC, Linezolid (E. coli [2]; [13]): 128 µg/mL; Antibiotic MIC, Linezolid (E. coli [2]; [14]): 32 µg/mL; Antibiotic MIC, Linezolid (E. coli [2]; [15]): 32 µg/mL; Antibiotic MIC, Linezolid (E. coli [2]; [16]): 16 µg/mL; Antibiotic MIC, Linezolid (E. coli [2]; [17]): 8 µg/mL; Antibiotic MIC, Linezolid (E. coli [2]; [18]): 0 µg/mL; Antibiotic MIC, Vancomycin (E. coli [2]; [19]): >128 µg/mL; Antibiotic MIC, Vancomycin (E. coli [2]; [20]): >128 µg/mL; Antibiotic MIC, Vancomycin (E. coli [2]; [21]): >128 µg/mL; Antibiotic MIC, Vancomycin (E. coli [2]; [22]): 32 µg/mL; Antibiotic MIC, Vancomycin (E. coli [2]; [23]): 16 µg/mL; Antibiotic MIC, Vancomycin (E. coli [2]; [24]): 8 µg/mL; Antibiotic MIC, Vancomycin (E. coli [2]; [25]): 4 µg/mL; Antibiotic MIC, Vancomycin (E. coli [2]; [26]): 0 µg/mL; Minimal inhibitory concentration MIC (S. aureus): >128 µg/mL; Minimal inhibitory concentration MIC (B. subtilis): >128 µg/mL |
| CC[C@H](C)[C@H](NC(=O)[C@H](CCCCN)NC(=O)[C@H](Cc1c[nH]c2ccccc12)NC(=O)[C@@H](N)CCCNC(=N)N)C(=O)N[C@@H](Cc1ccccc1)C(=O)N[C@@H](CCCCN)C(=O)N[C@@H](CCCCN)C(=O)N[C@H](C(=O)N[C@H](CCCCN)C(=O)N[C@@H](CCCCN)C(=O)N[C@@H](CC(C)C)C(=O)N[C@@H](CC(C)C)C(=O)N[C@@H](Cc1c[nH]cn1)C(=O)N[C@@H](CO)C(=O)N[C@@H](C)C(=O)N[C@@H](CCCCN)C(=O)N[C@@H](CCCCN)C(=O)N[C@@H](Cc1c[nH]c2ccccc12)C(N)=O)[C@@H](C)CC [PapMA-16, RWK IFK KIk KLL HSA KKW-NH2] (H-RWKIFKKI[dK]KLLHSAKKW-NH2; N-terminus assumed) | 32 (≈ 13.7 µM) | 32 | 32 (≈ 13.7 µM) | 32 | 64 (≈ 27.4 µM) | 64 (≈ 27.4 µM) | 64 (≈ 27.4 µM) | 64 (≈ 27.4 µM) | >128 | >128 | 64 (≈ 27.4 µM) | higher level than the PapMA-1 peptide | 128 | 32 | 16 | 2 | 2 | 0.25 | 0.125 | 0 | Peptide MIC, peptide alone (MDREC 1229): 64 µg/mL; Antibiotic MIC, Linezolid (E. coli [2]; [11]): >128 µg/mL; Antibiotic MIC, Linezolid (E. coli [2]; [12]): >128 µg/mL; Antibiotic MIC, Linezolid (E. coli [2]; [13]): 32 µg/mL; Antibiotic MIC, Linezolid (E. coli [2]; [14]): 16 µg/mL; Antibiotic MIC, Linezolid (E. coli [2]; [15]): 16 µg/mL; Antibiotic MIC, Linezolid (E. coli [2]; [16]): 8 µg/mL; Antibiotic MIC, Linezolid (E. coli [2]; [17]): 4 µg/mL; Antibiotic MIC, Linezolid (E. coli [2]; [18]): 0 µg/mL; Antibiotic MIC, Vancomycin (E. coli [2]; [19]): >128 µg/mL; Antibiotic MIC, Vancomycin (E. coli [2]; [20]): >128 µg/mL; Antibiotic MIC, Vancomycin (E. coli [2]; [21]): >128 µg/mL; Antibiotic MIC, Vancomycin (E. coli [2]; [22]): 32 µg/mL; Antibiotic MIC, Vancomycin (E. coli [2]; [23]): 16 µg/mL; Antibiotic MIC, Vancomycin (E. coli [2]; [24]): 8 µg/mL; Antibiotic MIC, Vancomycin (E. coli [2]; [25]): 4 µg/mL; Antibiotic MIC, Vancomycin (E. coli [2]; [26]): 0 µg/mL; Minimal inhibitory concentration MIC (S. aureus): >128 µg/mL; Minimal inhibitory concentration MIC (B. subtilis): >128 µg/mL |
